Experimental data: patent publication US6552027B2, “Quinazolines for treating brain tumor” (Parker Hughes Institute, priority 1998, dated 2003)
Where a name gives a salt, the structure may show the parent alone. Read-outs that look alike come from different tables or passages of the source.

How the values were obtained:
[1] = tested on: U373 cells; assay: Adhesion of glioblastoma cells to ECM protein-coated plates; assay type: cell-based, human; conditions: for IC50: Homo sapiens, U373 MG
Experimental: In vitro adhesion assays were performed to (a) study the baseline adhesive properties of various glioblastoma cell lines and (b) evaluate the effects of quinazoline derivatives on the adhesive properties of glioblastoma cells. The plates for the adhesion assays were precoated with the extracellular matrix proteins laminin, fibronectin or type IV collagen (each at a final concentration of 1 μg/ml in PBS) overnight at 4° C. and dried. On the day of the experiment, the wells were rehydrated and blocked with 10% bovine serum albumin in PBS for 1 hour at room temperature and used for the adhesion assays, as described below.
DMSO (0.1%) was included as a vehicle control. After treatment, cells were detached from the flasks with 0.05% trypsin (Life Technologies) resuspended in DMEM, incubated at 37° C. for 2 hours to allow them to recover from the trypsinization stress and examined for their ability to adhere to plates precoated with ECM proteins.
In adhesion assays, cells were centrifuged, washed twice with serum-free DMEM, counted and resuspended in serum-free DMEM to a final concentration of 2.5×10^5 cells/ml. One hundred μl of the cell suspension containing 2.5×10^4 cells were added to each well and cells were allow d to adhere for 1 hour at 37° C. in a humidified 5% CO2 atmosphere. The adherent fraction was quantitated using MTT (3-[4,5-dimethylthiazol-2-yl]-2,5-diphenyltetrazolium bromide) assays. […] The adherent fractions of cells treated with quinazoline derivatives were compared to those of DMSO-treated control cells and the percent inhibition of adhesion was determined sing the formula: [formula]
Each treatment condition was evaluate d in duplicate in 3 independent experiments.

[2] = tested on: U373 glioblastoma cells; assay: Glioblastoma cell invasion through Matrigel matrix (Boyden chambers); assay type: cell-based; conditions: Homo sapiens, U373 MG
Experimental: The in vitro invasiveness of glioblastoma cells was assayed using a previously published method which employs Matrigel-coated Costar 24-well transwell cell culture chambers (“Boyden chambers”) with 8.0-μm-pore polycarbonate filter inserts (Albini, A., Iwamoto, Y., Kleinman, H. K., Martin, G. R., Aaronson, S. A., Kozlowski, J. M., and McEwan, R. N., 1987, Cancer Res., 47:3239-3245). The chamber filters were coated with 50 μg/ml of Matrigel matrix, incubated overnight at room temperature under a laminar flow hood and stored at 4° C. Matrigel matrix is made up of several components of the extralcellular matrix (ECM), including collagens, laminin and proteo-glycans
On the day of the experiment, the coated inserts were rehydrated with 0.5 ml serum-free DMEM containing 0.1% bovine serum albumin for 1-2 hours. To study the effects of quinazoline derivatives on invasiveness of glioblastoma cells, exponentially growing cells were incubated overnight with WHI-P97, WHI-P131 and WHI-P154 at various concentrations ranging from 1 μM to 50 μM. The cells were trypsinized, washed twice with serum-free DMEM containing BSA, counted and resuspended at 1×10^5 cells/ml. 0.5 ml cell suspension containing 5×10^4 cells in a serum-free DMEM containing quinazoline compounds or vehicle was added to the Matrigel-coated and rehydrated filter inserts. Next, 750 μl of NIH fibroblast conditioned medium was placed as a chemoattractant in 24-well plates and the inserts were placed in wells and incubated at 37° C. for 48 hours. […] The invasive cells that migrated to the lower side of the filter were fixed, stained with Hema-3 solutions and counted under microscope. Five to 10 random fields per filter were counted to determine the mean (±SE) values for the invasive fraction. The invasive fractions of cells treated with quinazoline derivatives were compared to those of DMSO treated control cells and he percent inhibition of invasiveness was determined using the formula: [formula]
Each treatment condition was evaluated in duplicate in 3 independent experiments. IC50 values were calculated by non-linear regression analysis using Graphpad Prisin Software Version 2.0 (Graphpad Software Inc., San Diego, Calif.).

[3] = tested on: NALM-6 leukemia cells; assay: MTT cytotoxicity assay, EGF-R negative leukemia cells (negative control line); assay type: cell-based; conditions: NALM-6; FIG. 5B
Experimental: Triplicate wells were used for each treatment.
Human glioblastoma cell line U373 was obtained from American.
The percent survival was calculated using the formula: [formula]

[4] = tested on: U373 human glioblastoma cell line; assay: MTT cytotoxicity assay, U373 glioblastoma cells; conditions: for IC50: Homo sapiens, U373 MG
Experimental: (§1) The cytotoxicity assay of various compounds against human brain tumor cell lines was performed using the MTT (3-[4,5-dimethylthiazol-2-yl]-2,5-diphenyl tetrazolium bromide) assay (Boehringer Mannheim Corp., Indianapolis, Ind.). Briefly, exponentially growing brain tumor cells were seeded into a 96-well plate at a density of 2.5×10^4 cells/well and incubated for 36 hours at 37° C. prior to drug exposure. […] Triplicate wells were used for each treatment.
Human glioblastoma cell line U373 was obtained from American. Type Culture Collection (Rockville, Md.) and maintained as a continuous cell line in Dulbecco's modified Eagles's medium supplemented with 10% fetal bovine serum and antibiotics. The B-lineage acute lymphoblastic leukemia cell line Nalm-6 was used as a negative control.
(§2) The cells were incubated with the various compounds for 24-36 hours at 37° C. in a humidified 5% CO2 atmosphere. To each well, 10 μl of MTT (0.5 mg/ml final concentration) was added and the plates were incubated at 37° C. for 4 hours to allow MTT to form formazan crystals by reacting with metabolically active cells. The formazan crystals were solubilized overnight at 37° C. in a solution containing 10% SDS in 0.01 M HCl. The absorbence of each well was measured in a microplate reader (Labsystems) at 540 nm and a reference wavelength of 690 nm. To translate the OD540 values into the number of live cells in each well, the OD540 values were compared to those on standard OD540—versus—cell number curves generated for each cell line. The percent survival was calculated using the formula: [formula]
(§3) The IC50 values were calculated by non linear regression analysis.

[5] = tested on: U87 human glioblastoma cell line; assay: MTT cytotoxicity assay, U87 glioblastoma cells; assay type: cell-based; conditions: Homo sapiens, unconjugated compound, read-out: IC50 value
Experimental: as §1, §2, §3
Apoptosis was also evaluated using the nick-end-labeling assay, as described for Example 3.

[6] = tested on: U373 human glioblastoma cells; assay: SCID mouse xenograft model of human glioblastoma; conditions: 1 mg/kg/day×10 days i.p.
Experimental: The right hind legs of the CB. 17 SCID mice were inoculated subcutaneously (s.c.) with 0.5×10^6 U373 human glioblastoma cells in 0.2 mL PBS. […] Daily treatments with PBS, unconjugated EGF (1 mg/kg/dose), and unconjugated WHI-P154 (1 mg/kg/dose) were used as controls. Mice were monitored daily for health status and tumor growth, and were sacrificed if they became moribund developed tumors which impeded their ability to attain food or water, at the end of the 3-month observation period. Tumors were measured using Vernier calipers twice weekly, and the tumor volumes were calculated according to the following formula (Friedman, S. H., mDolan, M. E., Pegg, A. E., Marcelli, S., Keir, S., Catino, J. J., Binger, D. D., Schold, S. C., Jr., 1995, Cancer Res., 55:2853-2857): [formula]
For histopathologic studies, tissues were fixed in 10% neutral buffered formalin, dehydrated, and embedded in paraffin by routine methods. Glass slides with affixed 6 micron tissue sections were prepared and stained with hematoxylin/eosin. Primary endpoints of interest were tumor growth and tumor-free survival outcome. Estimation of life table outcome and comparisons of outcome between groups were done, as previously reported (Waurzyniak, et al., 1997, Clinical Cancer Research 3:881-890; Anderson, et al., 1995, Cancer Res. 55:1321-1327; Uckun, et al., 1997, J. Clin. Oncol. 15:2214-2221).

[7] = one bound for all three coatings, read-out: all IC50 values, adhesion to laminin-, fibronectin- and collagen-coated plates
[8] = U373, 3 independent experiments, 48 hours, read-out: mean IC50 value, invasion through Matrigel matrix
[9] = U373, 3 independent experiments, read-out: range of IC50 values, invasion through Matrigel matrix
[10] = read-out: IC50 value derived from the average values of three experiments, invasion

Molecule `COc1cc2ncnc(Nc3cc4ccccc4cc3O)c2cc1OC` (as salt: salt) [WHI-P292, 4-(2′-Hydroxy-naphthyl-3′)-amino-6,7-dimethoxyquinazoline] has a melting point of 277 to 279 °C.

With `COc1cc2ncnc(Nc3cccc(Br)c3)c2cc1OC` [WHI-P79, 4-(3′-Bromophenyl)-amino-6,7-dimethoxyquinazoline] the IC50 [1, 7] was over 50 µM.

`COc1cc2ncnc(Nc3cc(Br)c(O)c(Br)c3)c2cc1OC` [WHI-P97, 4-(3′, 5′-Dibromo-4′-hydroxylphenyl)-amino-6,7-dimethoxyquinazoline] showed an IC50 [2, 8] of 10.6 ± 1.8 µM, an IC50 [2, 9] of 9.57 to 11.6 µM and an IC50 [2, 10] of 9.58 µM.

In the case of `COc1cc2ncnc(Nc3ccc(C)c(Br)c3)c2cc1OC` [WHI-P111, 4-(3′-Bromo-4′-methylphenyl)-amino-6,7-dimethoxyquinazoline], the melting point is reported as 225 to 228 °C.

`COc1cc2ncnc(Nc3ccc(O)cc3)c2cc1OC` [WHI-P131, 4-(4′-Hydroxylphenyl)-amino-6,7-dimethoxyquinazoline] showed an IC50 [1, 7] of over 50 µM, an IC50 [2, 8] of 7.07 ± 1.8 µM and an IC50 [2, 9] of 5.08 to 8.59 µM. It also gave an IC50 [2, 10] of 7.95 µM.

In the case of `COc1cc2ncnc(Nc3ccc(O)c(Br)c3)c2cc1OC` [WHI-P154, 4-(3′-Bromo-4′-hydroxylphenyl)-amino-6,7-dimethoxyquinazoline], the “cytotoxicity against EGF-R negative leukemia cells (in words)” value [3] is reported as “marked cytotoxicity”, the IC50 ([1]; 16 hours treatment, N=3, read-out: mean IC50 value, adhesion to collagen-coated plates) is reported as 42.7 ± 2.5 µM and the IC50 ([1]; 16 hours treatment, N=3, read-out: mean IC50 value, adhesion to fibronectin-coated plates) is reported as 29.8 ± 3.1 µM. The IC50 ([1]; 16 hours treatment, N=3, read-out: mean IC50 value, adhesion to laminin-coated plates) was 36.1 ± 3.5 µM, the IC50 ([4]; read-out: composite survival curve IC50 value) was 158 µM and the IC50 ([4]; read-out: mean (±SE) IC50 value) was 167 ± 26.9 µM. For the same molecule, the IC50 [5] was 179 ± 18.5 µM, the “time at which tumors reached a size of 50 mm^3” value [6] was 36.0 ± 5.1 days and the median tumor-free survival ([6]; N=5) was 19 days. For the same molecule, the IC50 [2, 8] was 4.46 ± 0.8 µM, the IC50 [2, 9] was 3.53 to 5.01 µM and the IC50 [2, 10] was 5.2 µM.

In the case of `COc1cc2ncnc(Nc3cc4ccccc4cc3O)c2cc1OC` [WHI-P292, 4-(2′-Hydroxy-naphthyl-3′)-amino-6,7-dimethoxyquinazoline], the IC50 [4] is reported as 38.2 µM.

For `O=c1c(-c2ccc(O)cc2)coc2cc(O)cc(O)c12` [genistein, reference compound], the “inhibition of glioblastoma cell adhesion (in words)” value ([1]; ECM-coated plates) was “did not affect glioblastoma cell adhesion and motility”, the IC50 ([4]; read-out: IC50 value) was over 250 µM and the “cytotoxicity against brain tumor cells (in words)” value ([4]; U373, MTT, 0.1 to 250 μM, FIGS. 1A and 1B) was “also ineffective”.
